Values quoted from earlier work in patent US20140234397A1 (priority 2013, published 2014).
Read-outs that look alike come from different tables or passages of the source.

Columns and labels:
[1] = rat; for removal of toxin: radio-tagged metal (CO60) removed from the liver
[2] = humans

Q: With `N[C@@H](CCC(=O)N[C@@H](CS)C(=O)NCC(=O)O)C(=O)O` [Plain glutathione, glutathione] as the molecule, how does the toxin remaining ([1]; radio-tagged metal (CO60) in the liver) read?
A: 100%

Q: And the removal of toxin [1]?
A: 0%

Q: What about the removal of toxin ([1]; listed as Intravenous glutathione) of the same molecule?
A: 64%

Q: And the “absorption after oral ingestion” value [2]?
A: not absorbed
